According to patent US6737383B1, “Herbicidal oxadiazolidines” (priority 1999, dated 2004):

Key:
[1] = system: corn; assay: Test B pre/postemergence corn; format: in vivo, Zea mays; conditions: for Plant response rating, Corn: scale of 0 to 10 where 0 is no effect and 10 is complete control
How it was run: (§1)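 Response is a visual 0-to-10 score relative to untreated plants, where 0 means no effect and 10 means complete control, taken twelve to sixteen days after application. Treatments went onto soil at planting and onto foliage of 1- to 4-leaf plants, using a surfactant-containing non-phytotoxic solvent.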

[2] = system: giant foxtail; assay: Test B pre/postemergence giant foxtail; format: in vivo, Setaria faberii; conditions: for Plant response rating, Giant foxtail: scale of 0 to 10 where 0 is no effect and 10 is complete control
How it was run: as §1

[3] = system: sugar beet; assay: Test B pre/postemergence sugar beet; format: in vivo, Beta vulgaris; conditions: for Plant response rating, Sugarbeets: scale of 0 to 10 where 0 is no effect and 10 is complete control
How it was run: as §1

[4] = system: rice; assay: Test B flood test rice; format: in vivo, Oryza sativa
How it was run: (§2)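 Plants were grown to the 2-leaf stage before treatment with test chemical, then held in a greenhouse for twelve to sixteen days. Injury was visually rated against untreated controls on a 0–10 scale, where 0 is no effect and 10 is complete control.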

[5] = system: cocklebur; assay: Test B pre/postemergence cocklebur; format: in vivo, Xanthium strumarium; conditions: for Plant response rating, Cocklebur: scale of 0 to 10 where 0 is no effect and 10 is complete control
How it was run: as §1

[6] = system: pigweed; assay: Test B pre/postemergence pigweed; format: in vivo, Amaranthus retroflexus; conditions: for Plant response rating, Redroot pigweed: scale of 0 to 10 where 0 is no effect and 10 is complete control
How it was run: as §1

[7] = system: wild oat; assay: Test B pre/postemergence wild oat; format: in vivo, Avena fatua; conditions: for Plant response rating, Wild oats: scale of 0 to 10 where 0 is no effect and 10 is complete control
How it was run: as §1

[8] = system: surinam grass; assay: Test B pre/postemergence surinam grass; format: in vivo, Brachiaria decumbens; conditions: for Plant response rating, B. signalgrass: scale of 0 to 10 where 0 is no effect and 10 is complete control
How it was run: as §1

[9] = system: smallflower flatsedge; assay: Test B flood test smallflower flatsedge; format: in vivo, Cyperus difformis
How it was run: as §2

[10] = system: bamyardgrass; assay: Test B flood test barnyardgrass; format: in vivo, Echinochloa crus-galli
How it was run: as §2

[11] = system: purple nutsedge; assay: Test B pre/postemergence purple nutsedge; format: in vivo, Cyperus rotundus; conditions: for Plant response rating, Nutsedge: scale of 0 to 10 where 0 is no effect and 10 is complete control
How it was run: as §1

[12] = system: crabgrass; assay: Test B pre/postemergence crabgrass; format: in vivo, Digitaria sanguinalis; conditions: for Plant response rating, Crabgrass: scale of 0 to 10 where 0 is no effect and 10 is complete control
How it was run: as §1

[13] = system: soybean; assay: Test B pre/postemergence soybean; format: in vivo, Glycine max; conditions: for Plant response rating, Soybean: scale of 0 to 10 where 0 is no effect and 10 is complete control
How it was run: as §1

[14] = system: blackgrass; assay: Test B pre/postemergence blackgrass; format: in vivo, Alopecurus myosuroides; conditions: for Plant response rating, Blackgrass: scale of 0 to 10 where 0 is no effect and 10 is complete control
How it was run: as §1

[15] = system: bedstraw; assay: Test B pre/postemergence bedstraw; format: in vivo, Galium aparine; conditions: Postemergence, scale 0 to 10 (0 no effect, 10 complete control)
How it was run: as §1

[16] = system: velvetleaf; assay: Test B pre/postemergence velvetleaf; format: in vivo, Abutilon theophrasti; conditions: for Plant response rating, Velvetleaf: scale of 0 to 10 where 0 is no effect and 10 is complete control
How it was run: as §1

[17] = Postemergence, Rate 31 g/ha, visual rating, scale 0 to 10 (0 no effect, 10 complete control)
[18] = Postemergence, Rate 250 g/ha, scale 0 to 10
[19] = Preemergence, Rate 31 g/ha, visual rating, scale 0 to 10 (0 no effect, 10 complete control)
[20] = Preemergence, Rate 250 g/ha, scale 0 to 10, 0 is no effect, 10 is complete control
[21] = Rate 62 g/ha, Postemergence, scale 0 to 10 (0 no effect, 10 complete control)
[22] = Rate 125 g/ha, Postemergence, scale 0 to 10, 0 is no effect, 10 is complete control
[23] = Rate 31 g/ha, Pre-emergence section (flood test species), scale 0 to 10
[24] = Rate 62 g/ha, flood test species, Pre-emergence, visual evaluation after twelve to sixteen days
[25] = Rate 125 g/ha, under heading Pre-emergence, flood test species, visual evaluation after twelve to sixteen days
[26] = Rate 250 g/ha, Pre-emergence (flood test species), scale 0 to 10, 0 is no effect, 10 is complete control

Cc1nc(C)c(C(C)n2c(=O)on(C(=O)N(c3ccccc3)C(C)C)c2=O)s1 (centres unmarked) [Compound 442]
Corn plant response rating [1, 17]: 0 | Corn plant response rating [1, 18]: 0 | Corn plant response rating [1, 19]: 0 | Plant response rating, Corn ([1]; Preemergence, Rate 62 g/ha): 0 | Plant response rating, Corn ([1]; Preemergence, Rate 125 g/ha): 0 | Corn plant response rating [1, 20]: 0 | Corn plant response rating [1, 21]: 0 | Corn plant response rating [1, 22]: 0 | Giant foxtail plant response rating [2, 17]: 0 | Giant foxtail plant response rating [2, 18]: 0 | Giant foxtail plant response rating [2, 19]: 0 | Plant response rating, Giant foxtail ([2]; Preemergence, Rate 62 g/ha): 0 | Plant response rating, Giant foxtail ([2]; Preemergence, Rate 125 g/ha): 0 | Giant foxtail plant response rating [2, 20]: 3 | Giant foxtail plant response rating [2, 21]: 0 | Giant foxtail plant response rating [2, 22]: 0 | Sugarbeets plant response rating [3, 17]: 0 | Sugarbeets plant response rating [3, 18]: 0 | Plant response rating, Sugarbeets ([3]; Preemergence, Rate 62 g/ha): 0 | Plant response rating, Sugarbeets ([3]; Preemergence, Rate 125 g/ha): 0 | Sugarbeets plant response rating [3, 20]: 0 | Sugarbeets plant response rating [3, 21]: 0 | Sugarbeets plant response rating [3, 22]: 0 | Rice plant response rating [4, 23]: 0 | Plant response rating, Rice (0 to 10 scale, 0 is no effect, 10 is complete control) [4, 24]: 0 | Rice plant response rating (0 to 10 scale, 0 is no effect, 10 is complete control) [4, 25]: 0 | Rice plant response rating [4, 26]: 0 | Cocklebur plant response rating [5, 17]: 0 | Cocklebur plant response rating [5, 18]: 0 | Cocklebur plant response rating [5, 19]: 0 | Plant response rating, Cocklebur ([5]; Preemergence, Rate 62 g/ha): 0 | Plant response rating, Cocklebur ([5]; Preemergence, Rate 125 g/ha): 0 | Cocklebur plant response rating [5, 20]: 0 | Cocklebur plant response rating [5, 21]: 0 | Cocklebur plant response rating [5, 22]: 0 | Redroot pigweed plant response rating [6, 17]: 0 | Redroot pigweed plant response rating [6, 18]: 0 | Plant response rating, Redroot pigweed ([6]; Preemergence, Rate 62 g/ha): 0 | Plant response rating, Redroot pigweed ([6]; Preemergence, Rate 125 g/ha): 0 | Redroot pigweed plant response rating [6, 20]: 0 | Redroot pigweed plant response rating [6, 21]: 0 | Redroot pigweed plant response rating [6, 22]: 0 | Wild oats plant response rating [7, 17]: 0 | Wild oats plant response rating [7, 18]: 0 | Plant response rating, Wild oats ([7]; Preemergence, Rate 62 g/ha): 0 | Plant response rating, Wild oats ([7]; Preemergence, Rate 125 g/ha): 0 | Wild oats plant response rating [7, 20]: 0 | Wild oats plant response rating [7, 21]: 0 | Wild oats plant response rating [7, 22]: 0 | B. signalgrass plant response rating [8, 17]: 0 | B. signalgrass plant response rating ([8]; Postemergence, Rate 250 g/ha, scale 0 to 10, 0 no effect, 10 complete control): 0 | B. signalgrass plant response rating [8, 19]: 0 | Plant response rating, B. signalgrass ([8]; Preemergence, Rate 62 g/ha): 0 | Plant response rating, B. signalgrass ([8]; Preemergence, Rate 125 g/ha): 0 | B. signalgrass plant response rating [8, 20]: 0 | B. signalgrass plant response rating [8, 21]: 0 | B. signalgrass plant response rating [8, 22]: 0 | S. Flatsedge plant response rating [9, 23]: 0 | Plant response rating, S. Flatsedge (0 to 10 scale, 0 is no effect, 10 is complete control) [9, 24]: 0 | S. Flatsedge plant response rating (0 to 10 scale, 0 is no effect, 10 is complete control) [9, 25]: 0 | S. Flatsedge plant response rating [9, 26]: 0 | Barnyardgrass plant response rating [10, 23]: 0 | Plant response rating, Barnyardgrass (0 to 10 scale, 0 is no effect, 10 is complete control) [10, 24]: 0 | Barnyardgrass plant response rating (0 to 10 scale, 0 is no effect, 10 is complete control) [10, 25]: 0 | Barnyardgrass plant response rating [10, 26]: 0 | Nutsedge plant response rating [11, 17]: 0 | Nutsedge plant response rating [11, 18]: 0 | Plant response rating, Nutsedge ([11]; Preemergence, Rate 62 g/ha): 0 | Plant response rating, Nutsedge ([11]; Preemergence, Rate 125 g/ha): 0 | Nutsedge plant response rating [11, 20]: 0 | Nutsedge plant response rating [11, 21]: 0 | Nutsedge plant response rating [11, 22]: 0 | Crabgrass plant response rating [12, 17]: 0 | Crabgrass plant response rating [12, 18]: 0 | Crabgrass plant response rating [12, 19]: 5 | Plant response rating, Crabgrass ([12]; Preemergence, Rate 62 g/ha): 7 | Plant response rating, Crabgrass ([12]; Preemergence, Rate 125 g/ha): 8 | Crabgrass plant response rating [12, 20]: 8 | Crabgrass plant response rating [12, 21]: 0 | Crabgrass plant response rating [12, 22]: 0 | Soybean plant response rating [13, 17]: 0 | Soybean plant response rating [13, 18]: 0 | Plant response rating, Soybean ([13]; Preemergence, Rate 62 g/ha): 0 | Plant response rating, Soybean ([13]; Preemergence, Rate 125 g/ha): 0 | Soybean plant response rating [13, 20]: 0 | Soybean plant response rating [13, 21]: 0 | Soybean plant response rating [13, 22]: 0 | Blackgrass plant response rating [14, 17]: 0 | Blackgrass plant response rating [14, 18]: 0 | Blackgrass plant response rating [14, 19]: 0 | Plant response rating, Blackgrass ([14]; Preemergence, Rate 62 g/ha): 0 | Plant response rating, Blackgrass ([14]; Preemergence, Rate 125 g/ha): 0 | Blackgrass plant response rating [14, 20]: 0 | Blackgrass plant response rating [14, 21]: 0 | Blackgrass plant response rating [14, 22]: 0 | Bedstraw plant response rating ([15]; Rate 31 g/ha, visual rating): 0 | Bedstraw plant response rating ([15]; Rate 62 g/ha): 0 | Velvetleaf plant response rating [16, 17]: 0 | Velvetleaf plant response rating [16, 18]: 0 | Plant response rating, Velvetleaf ([16]; Preemergence, Rate 62 g/ha): 0 | Plant response rating, Velvetleaf ([16]; Preemergence, Rate 125 g/ha): 0 | Velvetleaf plant response rating [16, 20]: 0 | Velvetleaf plant response rating [16, 21]: 0 | Velvetleaf plant response rating [16, 22]: 0
